Values belong to the molecule of their own block, whether it stands above or below them.
Tests used:
[1] = target: T1, TG2 in Caco-2 cell lysates (Homo sapiens, UniProt P21980); test: Transglutaminase activity in Caco-2 whole cell lysates (5BP cross-linking); assay type: biochemical; settings: mean ± SD, n = 3
T1 construct: endogenous in cells; host or cells: Caco-2 (differentiated; IFN-γ-stimulated in the monolayer assay)
T1 sequence (P21980 1-687): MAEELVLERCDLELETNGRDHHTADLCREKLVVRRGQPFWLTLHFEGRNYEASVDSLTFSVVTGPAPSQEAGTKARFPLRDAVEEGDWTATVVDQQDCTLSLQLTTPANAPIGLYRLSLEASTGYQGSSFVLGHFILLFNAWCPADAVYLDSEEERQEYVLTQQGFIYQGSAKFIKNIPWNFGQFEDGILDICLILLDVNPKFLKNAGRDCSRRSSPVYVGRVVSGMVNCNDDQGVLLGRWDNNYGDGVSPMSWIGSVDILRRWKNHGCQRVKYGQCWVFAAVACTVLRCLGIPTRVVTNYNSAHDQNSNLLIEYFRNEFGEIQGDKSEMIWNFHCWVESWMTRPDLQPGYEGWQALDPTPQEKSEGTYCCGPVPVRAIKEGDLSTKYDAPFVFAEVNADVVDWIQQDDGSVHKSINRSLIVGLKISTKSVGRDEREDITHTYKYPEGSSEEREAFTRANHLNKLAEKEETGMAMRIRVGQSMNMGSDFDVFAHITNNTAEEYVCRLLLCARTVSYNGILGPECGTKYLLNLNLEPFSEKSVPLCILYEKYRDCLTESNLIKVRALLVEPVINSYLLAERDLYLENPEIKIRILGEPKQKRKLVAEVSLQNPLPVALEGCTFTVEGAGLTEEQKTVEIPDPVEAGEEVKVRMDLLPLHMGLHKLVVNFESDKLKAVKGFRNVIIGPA
Protocol: The method to investigate TG2 activity from whole cell lysates was adapted from Lin et al.. In brief, 20 µg protein per cavity on the 96-well plate were incubated in 50 mM Tris, 1 mM EDTA, 5 mM calcium chloride (pH 7.5) buffer in the presence of 500 µM 5BP (5-biotinamidopentylamine, Thermo Fisher Scientific, Langenselbold, Germany) for the indicated time. After incubation, the plate was washed three times with PBS + 0.05% Tween. After blocking with 5% BSA in PBS for 1 h, the plate was incubated with 2 µg/mL streptavidin-Alexa Fluor 488 (Thermo Fisher Scientific) in 5% BSA. After 3 washing steps with PBS + 0.05% Tween, fluorometric evaluation was performed using a Clariostar Plus (BMG Labtech) microplate reader (no well scan mode, excitation 488 nm, emission 535 nm, fixed gain: 2000).

[2] = target: T2, TG2 in the intestinal lamina propria (Homo sapiens, UniProt P21980); test: TG2 activity in cryosections of duodenal biopsies from CD patients (5BP, confocal microscopy); assay type: biochemical; settings: increasing amounts of DTT in the incubation buffer
T2 construct: from tissue; host or cells: duodenal biopsies from celiac disease patients (unfixed 400 nm cryosections, lamina propria)
T2 sequence (P21980 1-687): T1 sequence (P21980 1-687)
Protocol: For immunofluorescence microscopic investigation of transglutaminase activity, only biopsies with minor macroscopic inflammatory signs were used. After endoscopy, biopsies were immediately washed three times in PBS and cryopreserved in polyvinylpyrrolidone sucrose at 4 °C overnight. Biopsies were mounted on specimen holders using Tissue-Tek O.C.T (Sakura Finetek, Staufen im Breisgau, Germany) compound and frozen in liquid nitrogen. For evaluation of transglutaminase activity by the post-embedding procedure, 400 nm cryosections were obtained using a cryo-ultramicrotome (Leica EM UC6, Leica, Wetzlar, Germany) and mounted on class cover slides. After three brief washes with PBS, tissue sections were incubated with the indicated concentrations of the inhibitors for 1 h in tris buffer. Then, the TG2 substrate 5BP was incubated for 1 h at 37 °C in tris buffer containing DTT at the indicated concentration. Slides were washed three times in PBS, fixed in 4% paraformaldehyde (10 min), permeabilized with 0.5% Triton (10 min) and incubated with blocking solution (0.1% cold water fish skin gelatin + 5% BSA + 5% goat serum, 10 min). Afterwards, a rabbit polyclonal antibody directed against human TG2 (Kan5, kindly provided by Dr T. Mothes, Institute of Laboratory Medicine, University Hospital Leipzig, Germany) was applied at 1:200 dilution in blocking solution overnight at 4 °C. After three washing steps (each 5 min) with PBS, Alexa Fluor-555-conjugated secondary antibody (goat-anti-rabbit, 1:200, Thermo Fisher Scientific) and Alexa Fluor-488-conjugated streptavidin (2 µg/mL, Thermo Fisher Scientific) were incubated at room temperature in the dark for 1 h. After three washes with PBS, samples were covered in ProLong Gold antifade mountant (Thermo Fisher Scientific) and sealed with clear nail polish. Sealed slides were stored in the dark at 4 °C until microscopy.
Imaging was done using a confocal laser scanning microscope (TE2000-E, Nikon, Langen, Germany) and a 60× Plan Apo (NA 1.41) immersion oil objective. The detailed acquisition settings and the corresponding macro (Image J [46]) for image processing can be accessed in the Supplementary Materials methods (S1). Five images per patient where quantified. For quantitation, mean fluorescence intensity of TG2 activity (488 nm channel) was normalized to TG2 expression (555 nm channel) within the intestinal lamina propria.

[3] = target: T3, extracellular TG2 on Caco-2 cells (Homo sapiens, UniProt P21980); test: Extracellular TG2 activity on confluent Caco-2 cell monolayers (5BP cross-linking); assay type: cell-based; settings: for TG2-mediated crosslinking: 1 mM DTT, 3 h with 5BP, mean ± SD, n = 4
T3 construct: endogenous in cells; host or cells: Caco-2 (differentiated; IFN-γ-stimulated in the monolayer assay)
T3 sequence (P21980 1-687): T1 sequence (P21980 1-687)
Protocol: The method was adapted from Yi et al.. To induce TG2 expression, Caco-2 cells were stimulated with IFN-γ 1000 IU/mL for 48 h. Then, cells were washed three times with warm PBS and incubated with the substrate 5BP for 3 h at 37 °C in 50 mM Tris and 1 mM EDTA (pH 7.5). The substances ERW1041, PX-12 and DTT were added to this solution when indicated. After incubation, cells were washed three times with PBS, fixed with 4% paraformaldehyde for 10 min and blocked with 5% BSA in PBS at 4 °C overnight. Then, cells were incubated at room temperature with streptavidin-Alexa488 (Thermo Scientific, 4 µg/mL) in 5% BSA in the dark for 1 h, followed by three washes with PBS. Fluorometric quantitation was conducted using a FLUOstar Optima microplate reader (BMG Labtech, filter settings: excitation 485 nm, emission 525 nm). Manual gain adjustment was performed, setting the well with the most intense signal as 95%. In all experiments, data were background subtracted against a control without 5BP substrate.

[4] = tested on: epithelial infiltration of CD8+ T cells and mucosal damage; settings: cited from earlier work
From the text: (§1) Even though our results underline the significance of TG2 inhibition, further research is needed to investigate the effects of those inhibitors on gliadin-induced inflammation. In recent studies, these inflammatory mechanisms were only partially mitigated by inhibition of TG2.

actin rearrangement = settings: cited from earlier work
From the text: as §1

T-cell stimulation = settings: cited from earlier work
From the text: as §1

[5] = tested on: gliadin peptide uptake (P31-43 and P57-68); settings: cited from earlier work
From the text: Since TG2 is expressed on the surface of epithelial cells and plays a role in transcytosis, we aimed to investigate the effect of TG2 inhibitors on the epithelial uptake of gliadin peptides. First, we confirmed the results from Caputo et al. and Zimmermann et al. by showing that the translocation of P31-43, but not of P56-88, was inhibited by the endocytosis inhibitor MBCD [21, 37].

TG2 expression = test: Western blotting of TG2 protein expression in Caco-2 cells; assay type: cell-based, human; settings: IFN-γ 48 h; normalized to GAPDH; n = 4
Protocol: […] First, cells were washed two times with cold PBS, scraped off the plate and centrifuged (60 s at 14,100× g). The cell pellet was resuspended in RIPA lysis buffer supplemented with phenylmethylsulfonyl fluoride, protease inhibitor and sodium orthovanadate (1% each), incubated for 20 min on ice and centrifuged (20 min at 14,100 gat 4 °C) afterwards. Supernatant was collected and cell debris was discarded. Protein quantitation was performed using the Pierce BCA protein assay kit (Thermo Fisher Scientific). After denaturation in Laemmli buffer containing 2-mercaptoethanol for 5 min at 95 °C, 10 µg of the protein extract per lane were loaded on a 12% SDS-gel. Electrophoresis was done for 1 h at 40 mA. Protein transfer onto PVDF membrane (0.2 µm pore size) was done using a Transblot Turbo system (Bio-Rad Laboratories) for 30 min (25 V, 1 A). The membrane was blocked for 1 h with 5% non-fat dry milk in PBS + […]. The primary antibodies (anti-TG2 (1:500): CUB7402, Abcam, Cambridge, UK; anti-GAPDH (1:5000): MAB374, Merck Millipore, Darmstadt, Germany) were incubated at 4 °C in blocking buffer overnight. […] Image processing and quantitation were performed using a ChemiDoc XRS+ imager and Image Lab software (BioRad Laboratories, Feldkirchen, Germany).

[6] = tested on: transepithelial passage of P31-43 in Caco-2 cells; test: Transepithelial transport of promofluor-conjugated gliadin peptide P31-43 across Caco-2 monolayers (fluorometry); assay type: cell-based, human; settings: 3 h
Protocol: (§2) Transepithelial transport of immunogenic and toxic gliadin peptides were examined in Caco-2 cells 7–14 days after confluency. Caco-2 cells were seeded on semi-permeable transwell supports (ThinCert, culture surface: 33.6 mm², pore size: 0.4 µm) in 24-well plates (Greiner Bio One, Pleidelsheim, Germany). Prior to the transport experiments, the integrity of the cell monolayer was tested by measuring the transepithelial electric resistance (TEER) using a volt-ohm meter (Millipore, Schwalbach, Germany). Monolayers with insufficient TEER (<350 Ω/cm^2) were omitted. The synthesis and purification of promofluor-conjugated gliadin peptides were described elsewhere. Cells were either incubated with the immunogenic peptide P56-88 ([…]) or the toxic gliadin peptide P31-43 (LGQQQPFPPQQPY), 7 µg/mL each, in Hank’s balanced salt solution (HBSS) for 3 h. To investigate the role of TG2 on the transport of gliadin peptides, incubation was performed in the presence of ERW1041 and PX-12. After 3 h, basal and apical supernatants were collected, and the relative fluorescence of the basal compartment was quantified using a FLUOstar Optima (BMG Labtech) microplate reader. Background subtraction was performed against conditions, where no labeled peptides were used. Normalization was performed against conditions, where no inhibitors were used.

[7] = tested on: transepithelial passage of P56-88 in Caco-2 cells; test: Transepithelial transport of promofluor-conjugated gliadin peptide P56-88 across Caco-2 monolayers (fluorometry); assay type: cell-based, human; settings: 3 h
Protocol: as §2

[8] = tested on: uptake of P56-88 by Caco-2 cells; test: Epithelial uptake of P56-88 by Caco-2 cells (confocal microscopy); assay type: cell-based, human; settings: 1 h incubation; z-stack imaging and 3D reconstruction
Protocol: For microscopic evaluation, Caco-2 cells were seeded on polymer-covered µ-slides (80826, Ibidi) and incubated for 1 h with labeled gliadin peptides in the presence of TG2 inhibitors. After three washes with PBS, cells were fixed with 4% paraformaldehyde. Nuclear staining was performed for 10 min using Hoechst fluorescent stain (1:1000 in PBS). Imaging was done using a confocal laser scanning microscope (TE2000-E, Nikon) and a 60× Plan Apo (NA 1.41) immersion oil objective. Processing of z-stacks, including 3D reconstruction, was performed using ImageJ [46]. For quantitation, z-stack images were taken with the same microscope settings. Using ImageJ, maximum intensity projections were obtained of the z-stack images, and the fluorescence intensity was measured within the whole image.

[9] = Caco-2 monolayer on transwell, A-B, 7 µg/mL in HBSS, TEER >= 350 Ω/cm^2, fluorometry

TG2 activity in Caco-2 cell lysates ([1]; protein lysate treated with 10 mM DTT for 1 h): 395 ± 21%
TG2-mediated crosslinking ([3]; IFN-γ-stimulated Caco-2 cells, not significant): 123 ± 24%
TG2-mediated crosslinking ([3]; non-stimulated Caco-2 cells): 141 ± 17%
Molecule: O[C@@H](CS)[C@@H](O)CS (racemic) [DTT, dithiothreitol]
effect of DTT on TG2 activity in cryopreserved tissue sections [2]: enhanced TG2 activity in the cryopreserved tissue in a dose-dependent manner

Molecule: CC(=O)CSc1n(C)cc[n+]1C.[Cl-] [R283]
effect on epithelial infiltration of CD8+ T cells and mucosal damage [4]: did not mitigate
effect on actin rearrangement after treatment with P31-43 (actin rearrangement): did not prevent actin rearrangement

Molecule: NCCSSCCN [cystamine]
CD patients in whom T-cell stimulation was prevented (T-cell stimulation): 50%
effect on gliadin peptide uptake (P31-43 and P57-68) [5]: did not show an effect

Molecule: CN(C)c1cccc2c(S(=O)(=O)NCCCCCN)cccc12 [monodansyl cadaverine]
effect on gliadin peptide uptake (P31-43 and P57-68) [5]: did not show an effect

Molecule: IFN-γ: key cytokine of the Th1-driven inflammation in CD, recognized inducer of TG2 expression
TG2 expression on the protein level (TG2 expression): almost sevenfold increase

Molecule: LGQQQPFPPQQPY [P31-43]
translocation from the apical to the basal compartment [6, 9]: detected in the basal compartment

Molecule: LQLQPFPQPQLPYPQPQLPYPQPQLPYPQPQPF [P56-88]
translocation from the apical to the basal compartment [7, 9]: detected in the basal compartment
cellular localization of the peptide [8]: localized in the supranuclear cell region

Molecule: methyl-β-cyclodextrin [MBCD]
transepithelial passage of P31-43 (relative basal fluorescence) ([6]; in the presence of MBCD, 7 µg/mL peptide apical in HBSS, normalized to no inhibitor, mean ± SD, n = 3): 58 ± 7%
transepithelial transport of P56-88 (relative basal fluorescence) ([7]; in the presence of MBCD, 7 µg/mL peptide apical in HBSS, normalized to no inhibitor, n.s., mean ± SD, n = 3): 89 ± 13%

increase of extracellular TG2 activity after IFN-γ stimulation ([3]; 1000 IU/mL IFN-γ, 48 h): about 4 times
B1: IFN-γ: key cytokine of the Th1-driven inflammation in CD, recognized inducer of TG2 expression (protein, UniProt P01579 24-161, looked up)
Interferon gamma: QDPYVKEAENLKKYFNAGHSDVADNGTLFLGILKNWKEESDRKIMQSQIVSFYFKLFKNFKDDQSIQKSVETIKEDMNVKFFNSNKKKRDDFEKLTNYSVTDLNVQRKAIHELIQVMAELSPAAKTGKRKRSQMLFRG
TG2 activity in Caco-2 cell lysates ([1]; Caco-2 cells treated with 500 IU/mL IFN-γ for 48 h): 760 ± 259%
